These results are taken from publication PMC12228718, “A porin-like protein used by bacterial predators defines a wider lipid-trapping superfamily” (Nature Communications, 2025).

One experiment concerns the target T1, PopAhis (Bdellovibrio bacteriovorus, UniProt Q6MQN4).
T1 construct: gene Bd0427; mature PopA with internal His tag SSHHHHHHGSS inserted after A103 (loop 2); pelB leader at start; pET29b, E. coli BL21(DE3) RIPL; native folded, DDM-solubilised; homopentamer
The experiment can be described thus: liposome swelling assay (OD400). In kind it is biochemical. The settings on record: relative to OmpF with L-arabinose = 100%; pH 7.0 proteoliposomes; passive permeation.

The target in the next experiment is T2, PopA (Bd0427; PopAΔSP) (Bdellovibrio bacteriovorus, UniProt Q6MQN4).
T2 construct: aa 21-353, signal peptide removed; selenomethionyl form A phased; homopentamer
Put plainly: X-ray crystallography (C222_[…] Å). The following applies: palmitate modelled in difference density behind loop 2 helix, carboxylate to R88; ligand not added, placed after AlphaFold3 suggestion. In kind it is binding.

In experiment [1] the target is PopAhis (mature PopA with an internal His tag in loop 2), natively folded (B. bacteriovorus HD100). The experiment can be described thus: cryo-EM structure; native PopAhis, 0.02 mg/mL in 50 mM Tris pH 8, 150 mM NaCl, 0.03% w/v DDM; 2.85 Å in C1 symmetry, 2.66 Å in C5 symmetry.
In experiment [2] the target is PopAΔSP (Bd0427, aa 21-353), refolded (B. bacteriovorus HD100). Put plainly: crystal structure; refolded PopAΔSP in β-OG detergent; C222(1) crystal form, 2.8 Å; five copies in the asymmetric unit.

T1 sequence (Q6MQN4 entry or part of it): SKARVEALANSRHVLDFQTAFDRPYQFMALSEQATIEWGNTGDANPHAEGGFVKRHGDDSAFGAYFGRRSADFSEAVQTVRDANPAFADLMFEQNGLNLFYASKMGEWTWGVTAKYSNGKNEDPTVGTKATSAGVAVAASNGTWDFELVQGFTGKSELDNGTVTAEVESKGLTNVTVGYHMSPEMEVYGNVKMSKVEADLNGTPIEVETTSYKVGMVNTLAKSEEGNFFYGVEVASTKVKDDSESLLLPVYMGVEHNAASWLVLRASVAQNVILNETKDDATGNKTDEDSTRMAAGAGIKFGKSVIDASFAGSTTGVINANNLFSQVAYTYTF
T2 sequence (Q6MQN4 entry or part of it, stated change not applied): as the sequence (Q6MQN4 entry or part of it) above

In the case of `C[C@H](N)C(=O)O` [alanine], the relative swelling rate result on PopAhis was “only able to permit the passage of small substrates, notably glycine and alanine (Fig. 3e)”.
In the case of `NCC(=O)O` [glycine], the relative swelling rate entry at PopAhis was “only able to permit the passage of small substrates, notably glycine and alanine (Fig. 3e)”.
For `CCCCCCCCCCCCCCCC(=O)O` [palmitate], the “X-ray crystallography (C222_1, 2.8 Å)” value on PopA (Bd0427; PopAΔSP) is “Refinement verified that palmitate fits the density well (Fig. 2h)”.
For the compound “PopAhis (mature PopA with an internal His tag in loop 2), natively folded (natural protein)”, the stoichiometry N (commonly the number of molecules, sites or subunits per partner or assembly) in experiment [1] was 5.
Take “PopAΔSP (Bd0427, aa 21-353), refolded (natural protein)”: the stoichiometry N in experiment [2] turned out to be 5.
